Reference: patent US9695155B2, “Herbicidal substituted pyrimidinyloxy benzene compounds” (E. I. DU PONT DE NEMOURS AND COMPANY, priority 2013, dated 2017)

Columns and labels:
[1] = test system: kochia; assay: Test E preemergence; type: in vivo, Kochia scoparia; details: for Kochia plant response rating: scale 0 to 100 (0 no effect, 100 complete control)
In short: (§1)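 Test chemicals formulated in a non-phytotoxic solvent mixture containing a surfactant were applied preemergence to seeds in silt loam soil or postemergence to plants at the 1- to 4-leaf stage in potting mix. After 14 to 21 days in a greenhouse, injury was visually rated against controls on a 0-100 scale (0 = no effect, 100 = complete control).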

[2] = test system: waterhemp; assay: Test E preemergence; type: in vivo, Amaranthus rudis; details: for Waterhemp plant response rating: scale 0 to 100 (0 no effect, 100 complete control)
In short: as §1

[3] = test system: palmer pigweed; assay: Test E preemergence; type: in vivo, Amaranthus palmeri; details: for Pigweed, Palmer plant response rating: scale 0 to 100 (0 no effect, 100 complete control)
In short: as §1

[4] = test system: corn; assay: Test E preemergence; type: in vivo, Zea mays; details: for Corn plant response rating: scale 0 to 100 (0 no effect, 100 complete control)
In short: as §1

[5] = test system: ragweed; assay: Test A postemergence; type: in vivo, Ambrosia elatior; details: 0 to 100 scale where 0 is no effect and 100 is complete control
In short: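 Compounds in non-phytotoxic solvent with surfactant applied as soil spray preemergence, or postemergence to plants 2-10 cm at one- to two-leaf stage, in loam/sand. After approximately 10 days in greenhouse, injury rated visually versus untreated controls, 0 (no effect) to 100 (complete control).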

[6] = test system: sedge, umbrella; assay: Test C flooded paddy test; type: in vivo, Cyperus difformis; details: Flood, scale 0 to 100 (0 no effect, 100 complete control), 13 to 15 days
In short: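 Under a constant 3 cm flood, test compounds went directly into the paddy water. Following 13 to 15 days of greenhouse growth, treated species and controls were compared by eye.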

[7] = test system: Italian ryegrass; assay: Test E preemergence; type: in vivo, Lolium multiflorum; details: for Ryegrass, Italian plant response rating: scale 0 to 100 (0 no effect, 100 complete control)
In short: as §1

[8] = test system: soybean; assay: Test E preemergence; type: in vivo, Glycine max; details: for Soybean plant response rating: scale 0 to 100 (0 no effect, 100 complete control)
In short: as §1

[9] = test system: green foxtail; assay: Test E preemergence; type: in vivo, Setaria viridis; details: for Foxtail, Green plant response rating: scale 0 to 100 (0 no effect, 100 complete control)
In short: as §1

[10] = 125 g ai/ha, scale 0 to 100, 0 no effect, 100 complete control
[11] = 250 g ai/ha, scale 0 to 100, 0 no effect, 100 complete control
[12] = 8 g ai/ha, scale 0 to 100, 0 is no effect, 100 is complete control

## CCOc1cnn(-c2c(C#N)cccc2Oc2ncc(F)cn2)c1 [Compound 89]
[1]; 31 g ai/ha
  Kochia plant response rating: 60
[1]; 62 g ai/ha
  Kochia plant response rating: 75
[1]; [10]
  Plant response rating, Kochia: 100
[1]; [11]
  Plant response rating, Kochia: 100
[2]; 31 g ai/ha
  Waterhemp plant response rating: 0
[2]; 62 g ai/ha
  Waterhemp plant response rating: 70
[2]; [10]
  Plant response rating, Waterhemp: 80
[2]; [11]
  Plant response rating, Waterhemp: 100
[3]; 31 g ai/ha
  Pigweed, Palmer plant response rating: 0
[3]; 62 g ai/ha
  Pigweed, Palmer plant response rating: 0
[3]; [10]
  Plant response rating, Pigweed, Palmer: 40
[3]; [11]
  Plant response rating, Pigweed, Palmer: 100
[4]; 31 g ai/ha
  Corn plant response rating: 0
[4]; 62 g ai/ha
  Corn plant response rating: 0
[4]; [10]
  Plant response rating, Corn: 30
[4]; [11]
  Plant response rating, Corn: 70
[5]; 125 g ai/ha
  Plant response rating, Ragweed: 30
[5]; 500 g ai/ha
  Plant response rating, Ragweed: 90
[6]; 62 g ai/ha
  Plant response rating, Sedge, Umbrella: 0
[6]; 125 g ai/ha
  Plant response rating, Sedge, Umbrella: 50
[6]; 250 g ai/ha
  Plant response rating, Sedge, Umbrella: 70
[7]; 31 g ai/ha
  Ryegrass, Italian plant response rating: 0
[7]; 62 g ai/ha
  Ryegrass, Italian plant response rating: 0
[7]; [10]
  Plant response rating, Ryegrass, Italian: 0
[7]; [11]
  Plant response rating, Ryegrass, Italian: 0
[8]; 62 g ai/ha
  Soybean plant response rating: 30
[8]; [10]
  Plant response rating, Soybean: 60
[8]; [11]
  Plant response rating, Soybean: 80
[9]; 31 g ai/ha
  Foxtail, Green plant response rating: 0
[9]; 62 g ai/ha
  Foxtail, Green plant response rating: 35
[9]; [10]
  Plant response rating, Foxtail, Green: 65
[9]; [11]
  Plant response rating, Foxtail, Green: 85

## FC(F)(F)c1cnn(-c2c(Cl)cccc2Oc2ncc(Cl)cn2)c1 [Compound 167]
[1]; 31 g ai/ha
  Kochia plant response rating: 40
[1]; 62 g ai/ha
  Kochia plant response rating: 65
[1]; [10]
  Plant response rating, Kochia: 90
[2]; 31 g ai/ha
  Waterhemp plant response rating: 98
[2]; 62 g ai/ha
  Waterhemp plant response rating: 98
[2]; [10]
  Plant response rating, Waterhemp: 100
[3]; 31 g ai/ha
  Pigweed, Palmer plant response rating: 0
[3]; 62 g ai/ha
  Pigweed, Palmer plant response rating: 98
[3]; [10]
  Plant response rating, Pigweed, Palmer: 100
[4]; 16 g ai/ha
  Corn plant response rating: 0
[4]; 31 g ai/ha
  Corn plant response rating: 0
[4]; 62 g ai/ha
  Corn plant response rating: 15
[4]; [10]
  Plant response rating, Corn: 25
[6]; 31 g ai/ha
  Plant response rating, Sedge, Umbrella: 60
[6]; 62 g ai/ha
  Plant response rating, Sedge, Umbrella: 70
[6]; 125 g ai/ha
  Plant response rating, Sedge, Umbrella: 80
[6]; 250 g ai/ha
  Plant response rating, Sedge, Umbrella: 85
[7]; 31 g ai/ha
  Ryegrass, Italian plant response rating: 0
[7]; 62 g ai/ha
  Ryegrass, Italian plant response rating: 10
[7]; [10]
  Plant response rating, Ryegrass, Italian: 40
[8]; 31 g ai/ha
  Soybean plant response rating: 0
[8]; 62 g ai/ha
  Soybean plant response rating: 20
[8]; [10]
  Plant response rating, Soybean: 50
[9]; 16 g ai/ha
  Foxtail, Green plant response rating: 10
[9]; 31 g ai/ha
  Foxtail, Green plant response rating: 35
[9]; 62 g ai/ha
  Foxtail, Green plant response rating: 70
[9]; [10]
  Plant response rating, Foxtail, Green: 90

## Fc1cccc(Oc2ncc(Cl)cn2)c1-n1cc(I)cn1 [Compound 179]
[1]; [12]
  Plant response rating, Kochia: 0
[1]; 62 g ai/ha
  Kochia plant response rating: 25
[1]; [10]
  Plant response rating, Kochia: 75
[2]; [12]
  Plant response rating, Waterhemp: 0
[2]; 62 g ai/ha
  Waterhemp plant response rating: 90
[2]; [10]
  Plant response rating, Waterhemp: 98
[3]; [12]
  Plant response rating, Pigweed, Palmer: 0
[3]; 62 g ai/ha
  Pigweed, Palmer plant response rating: 100
[3]; [10]
  Plant response rating, Pigweed, Palmer: 100
[4]; [12]
  Plant response rating, Corn: 0
[4]; 16 g ai/ha
  Corn plant response rating: 0
[4]; 62 g ai/ha
  Corn plant response rating: 0
[4]; [10]
  Plant response rating, Corn: 0
[6]; 31 g ai/ha
  Plant response rating, Sedge, Umbrella: 0
[6]; 62 g ai/ha
  Plant response rating, Sedge, Umbrella: 0
[6]; 125 g ai/ha
  Plant response rating, Sedge, Umbrella: 40
[6]; 250 g ai/ha
  Plant response rating, Sedge, Umbrella: 80
[7]; [12]
  Plant response rating, Ryegrass, Italian: 0
[7]; 62 g ai/ha
  Ryegrass, Italian plant response rating: 15
[7]; [10]
  Plant response rating, Ryegrass, Italian: 15
[8]; [12]
  Plant response rating, Soybean: 0
[8]; 62 g ai/ha
  Soybean plant response rating: 25
[8]; [10]
  Plant response rating, Soybean: 40
[9]; [12]
  Plant response rating, Foxtail, Green: 0
[9]; 16 g ai/ha
  Foxtail, Green plant response rating: 0
[9]; 62 g ai/ha
  Foxtail, Green plant response rating: 25
[9]; [10]
  Plant response rating, Foxtail, Green: 100

## FC(F)c1cccc(Oc2ncc(Cl)cn2)c1-n1cc(Br)cn1 [Compound 194, 2-[2-(4-bromo-1H-pyrazol-1-yl)-3-(difluoromethyl)phenoxy]-5-chloropyrimidine]
[1]; 31 g ai/ha
  Kochia plant response rating: 5
[1]; 62 g ai/ha
  Kochia plant response rating: 35
[2]; 31 g ai/ha
  Waterhemp plant response rating: 98
[2]; 62 g ai/ha
  Waterhemp plant response rating: 100
[3]; 31 g ai/ha
  Pigweed, Palmer plant response rating: 98
[3]; 62 g ai/ha
  Pigweed, Palmer plant response rating: 100
[4]; 31 g ai/ha
  Corn plant response rating: 0
[4]; 62 g ai/ha
  Corn plant response rating: 0
[6]; 31 g ai/ha
  Plant response rating, Sedge, Umbrella: 50
[6]; 62 g ai/ha
  Plant response rating, Sedge, Umbrella: 75
[6]; 125 g ai/ha
  Plant response rating, Sedge, Umbrella: 85
[6]; 250 g ai/ha
  Plant response rating, Sedge, Umbrella: 95
[7]; 31 g ai/ha
  Ryegrass, Italian plant response rating: 0
[7]; 62 g ai/ha
  Ryegrass, Italian plant response rating: 0
[8]; 31 g ai/ha
  Soybean plant response rating: 0
[8]; 62 g ai/ha
  Soybean plant response rating: 20
[9]; 31 g ai/ha
  Foxtail, Green plant response rating: 35
[9]; 62 g ai/ha
  Foxtail, Green plant response rating: 80
